# From paper PMC9421654, “Discovery of Substituted Di(pyridin-2-yl)-1,2,4-thiadiazol-5-amines as Novel Macrofilaricidal Compounds for the Treatment of Human Filarial Infections” (Journal of Medicinal Chemistry, 2022)
# Read-outs that look alike come from different tables or passages of the source.
# Tests used:
# [1] = Liver S9 metabolic stability assay, human; format: in vitro ADME; settings: 3 μM, 60 min
# Description: (§1) Liver S9 Metabolic Stability Assay: Incubations were performed at 37 °C in a Dubnoff Shaking water bath using 2 mL 96-well incubation plates. Rat and human S9 protein concentrations were 0.75 mg/ml and 1.2 mg/ml, respectively. The final concentrations of NADPH, UDPGA, and GSH were 1, 0.5, and 2.5 mM, and the final concentration of PAPS was 0.05 mg/ml. Substrate concentrations were 3µM, incubation time was 60 minutes, and all tests were done in triplicate. The incubation was conducted in 200 mM Tris buffer containing 2 mM magnesium chloride, pH=7.4 and the total incubation volume was 0.5 ml. Samples were analysed via LC-MS/MS and reported as percentage remaining after incubation for 60 minutes. […]
# [2] = system: O. gutturosa adult male worms; test: O. gutturosa adult worm ex vivo assay, MTT/formazan viability; format: cell-based, Onchocerca gutturosa; settings: supplement, SD in brackets in the PDF table, read-out: O. gutturosa EC50 (uM) MTT viability inhibition
# Description: (§2) Activity against O. gutturosa adult male worms was determined using reported procedures.[7] The EC50 values were calculated using Microsoft Office Excel (2010) data analysis software. The tested compound is considered active when a motility reduction of ≥50% is observed by comparison to the untreated controls. O. gutturosa adult male worms were obtained postmortem from freshly slaughtered cattle. The worms were dissected from the nuchal ligament connective tissues of naturally infected cattle in Gambia, West Africa; the material was purchased from the International Trypanotolerance Centre, Banjul, from local butchers for use in this study. The adult worms were transferred individually to each well of a sterile 24-well (2 mL) plate (Thermo Fisher Scientific, UK) and maintained for at least 24 h in culture before use. The medium used was a minimum essential medium (MEM) with Earl’s salts and L-glutamine (Life Technologies Ltd., UK) supplemented with 10% heat inactivated newborn calf serum (Life Technologies Ltd., UK), 200 units/mL penicillin, 200 μg/mL streptomycin, and 0.5 μg/mL amphotericin B (Life Technologies Ltd., UK). Only normally active worms were used for the test, and all assays were conducted at 37 °C and 5% CO2. The positive control drug used was Immiticide (melarsomine dihydrochloride, Merial, USA). Known amounts of compounds were solubilized in 1 mL of DMSO. All stock solutions were allowed to stand at room temperature prior to use. The test items (four worms/drug concentration) were compared to untreated controls (six worms) and the positive control (two worms/drug concentration). Drug efficacy was assessed by the measurement of mean worm motility scores on a scale of 0 (immotile) to 10 (maximum) every 24 h, terminating at 120 h, using an Olympus inverted microscope. The results are reported as a percentage of the maximum score obtainable (100%) by calculating the motility index scores. The test drug is considered active when a motility reduction of ≥50% is observed by comparison to the untreated controls. […] In addition, biochemical evaluation of worm viability was assessed using MTT/formazan colorimetry. The MTT assay was carried out after the last motility reading (120 h). Single intact worms were placed in each well of a 48-well plate (Thermo Fisher Scientific, UK) containing 0.5 mL of 0.5 mg/mL MTT (Sigma, UK) in PBS solution and then incubated for 30 min at 37 °C. The worms were removed, blotted carefully, and individually transferred to separate wells of a 96-well microtiter plate, each containing 200 μL of DMSO to solubilize the formazan. After 1 h, the plate was gently agitated to disperse the color evenly and the absorbance value (optical density, OD) of the resulting formazan solution was determined at 490 nm using an absorbance microplate reader (Biotek ELx800, Thermo Fisher Scientific, UK). The results are expressed as the mean OD per drug concentration. Inhibition of formazan formation is correlated with worm damage or death.
# [3] = Kinetic solubility measurement; format: physicochemical; settings: 10 mM DMSO stock solutions
# Description: Kinetic Solubility Measurement: The standard kinetic solubility assay runs on […] concentration range using 10 mM DMSO stock solutions for plating. Single point calibration assay runs in duplicates. Concentration of standards: […] DMSO solutions prepared by diluting 10 mM stock, solution with DMSO. Concentration of samples: 200 µM, 4 µl 10 mM DMSO stock solution diluted with the appropriate buffer to […]. DMSO content:
# 2%. Buffers: pH=7.4 (0.1M Potassium phosphate buffer, diluted from Sigma 1M P3619-1GA to 0.1 M with MilliQ water), pH=2.2 (0.1M- NaCl pH adjusted with 0.1N HCL), pH=6.8 (0.1M - KH2PO4/K2HPO4), pH=5 (4 .04g of NaOH (Pellets), 8.65g of Glacial Acetic Acid, 11.874g of NaCl. In in 1 liter water. Adjusted to pH to 5 with either 1N NaOH or 1N HCl). The controls were plated from the standard 10 mM DMSO stock and run on the standard concentration (200µM) range of the assay. Incubation time: 24 hours shaking at […] in Millipore Multiscreen HTS filter plate for Aqueous Solubility Assay (MSSLBPC50), on room temperature.
# After incubation time filtration with positive pressure manifold was performed. […]
# [4] = system: O. gutturosa adult male worms; test: O. gutturosa adult worm ex vivo assay, motility; format: cell-based, Onchocerca gutturosa
# Description: as §2
# Data S1. Onchocerca gutturosa adult male worms EC 50 Curves
# Plotted using Graph Pad Prism 7.03, least square original fit, sigmoidal, 4PL
# The measurement of mean worm motility every 24 h, terminating at 120 h, serial 1 in 4 drug dilutions to find
# activity endpoint and produce EC50 values (geomean, n=2) for motility reduction. (4 worms per drug […]
# [5] = Liver S9 metabolic stability assay, rat; format: in vitro ADME; settings: 3 μM, 60 min
# Description: as §1
# [6] = LogD measurement (octanol-water); format: physicochemical
# Description: LogD Measurement: Measurement of octanol-water distribution coefficient of samples using a […]
# stock solutions for plating. Aqueous Phase: 100mM Buffer, pH=7.4 (0.1M Potassium phosphate buffer, diluted from Sigma 1M P3619-1GA to 0.1 M with MilliQ water), pH=2.2 (0.1M- NaCl pH adjusted with 0.1N HCL), pH=6.8 (0.1M - KH2PO4/K2HPO4), pH=5 (4 .04g of NaOH (Pellets), 8.65g of Glacial Acetic Acid, 11.874g of NaCl. In in 1 liter water. Adjusted to pH to 5 with either 1N NaOH or 1N HCl); Organic Phase: 1-Octanol (O021). Sample Concentration:
# 1000uM, […] 10 mM DMSO stock solution diluted in […] of organic Phase and […] of aqueous Phase. DMSO content: 10%. The controls were plated from the standard 10 mM DMSO stock and run on the standard concentration ([…]) range of the assay. Incubation time:
# Sonication for 30 minutes followed by 24 hours shaking at 750 rpm in 96 deep well plate (VWR
# [7] = Onchocerca gutturosa, read-out: O. gutturosa EC50 μM (SD), ex vivo adult worm motility reduction, SD in brackets
# [8] = Onchocerca gutturosa, read-out: O. gutturosa EC50 (uM) motility inhibition, supplement, SD in brackets in the PDF table
# [9] = supplement, read-out: measured logD
Compound,Human S9 metabolic stability [1] [% remaining],EC50 [2] [µM],solubility kinetic at 24 h [3] [µM],"EC50 ([4]; adult worm motility, bound stated, read-out: O. gutturosa EC50) [µM]","EC50 ([4]; supplement, SD in brackets in the PDF table, read-out: O. gutturosa EC50 (uM) motility inhibition) [µM]",Rat S9 metabolic stability [5] [% remaining],logD ([6]; pH 7.4),measured logD ([6]; supplement),EC50 ([2]; Onchocerca gutturosa) [µM],"EC50 [4, 7] [µM]","EC50 [4, 8] [µM]","logD at 24 h [6, 9]","logD at 24 h ([6]; pH 7.4, read-out: logD)"
"3-(3-Methyl-2-pyridyl)-N-(5-pyrrolidin-1-yl-2-pyridyl)-1,2,4-thiadiazol-5-amine [Compound 21]",86,0.14,2.17,< 0.1,0.044,61,2.65,2.65,–,–,–,–,–
"Cc1cccnc1Nc1nc(-c2ccc(OC3CCOCC3)cn2)no1 [Compound 6, N-(3-Methylpyridin-2-yl)-3-(5-((tetrahydro-2H-pyran-4-yl)oxy)pyridin-2-yl)-1,2,4-oxadiazol-5-amine]",98,4.06,57.5,–,–,85,–,–,4.1,0.07,0.072,1.7,–
"c1ccc(Nc2nc(-c3ccccn3)ns2)nc1 [Compound 9, N,3-Di(pyridin-2-yl)-1,2,4-thiadiazol-5-amine]",83,–,8.2,–,–,83,–,–,1.1,0.16,0.155,1.8,1.8
"Cc1cccnc1Nc1nc(-c2ccc(C#N)cn2)ns1 [Compound 13, 6-(5-((3-Methylpyridin-2-yl)amino)-1,2,4-thiadiazol-3-yl)nicotinonitrile]",66,–,0.55,–,–,73,–,–,20,5.8,–,2.75,2.75
Cc1cccnc1Nc1nc(-c2cc(C#N)ccn2)ns1 [Compound 14],65,–,2.55,–,–,78,–,–,4.5,3.1,–,2,2
Cc1cccnc1Nc1nc(-c2cc(C(=O)N(C)C)ccn2)ns1 [Compound 16],89,–,26.5,–,–,78,–,–,1.1,3.28,–,1.9,1.9
Cc1cccnc1Nc1nc(-c2cc(C3CCN(C)CC3)ccn2)ns1 [Compound 22],78,–,184,–,–,81,–,–,13.1,0.2,0.198,2,2
"COc1cccnc1Nc1nc(-c2cc(C)ccn2)ns1 [Compound 29, N-(3-Methoxy-2-pyridyl)-3-(4-methyl-2-pyridyl)-1,2,4-thiadiazol-5-amine]",72,–,26.5,–,–,70,–,–,0.88,0.12,0.121,2.1,2.1
CC(C)Oc1cc(-c2nsc(Nc3ncccc3N(C)C)n2)ncc1C(F)(F)F [Compound 33],100,–,1.43,–,–,8,–,–,0.83,0.85,0.852,3,3
"CN1CCC(Oc2ccc(Nc3nc(-c4ccccn4)ns3)nc2)CC1 [Compound 36, N-(5-((1-Methylpiperidin-4-yl)oxy)pyridin-2-yl)-3-(pyridin-2-yl)-1,2,4-thiadiazol-5-amine]",88,–,193,–,–,99,–,–,–,1.12,–,1.7,1.7
CC(C)Oc1ccc(-c2nsc(Nc3cc(C(F)(F)F)c(C(C)C)cn3)n2)nc1 [Compound 37],100,–,1.00,–,–,100,–,–,0.3,0.05,0.053,2.8,2.8
CC(=O)N(C)c1cc(C(F)(F)F)cnc1Nc1nc(-c2ccccn2)ns1 [Compound 53],–,–,4.05,–,–,–,–,–,0.15,0.05,0.047,2.2,2.2
CC(C)Oc1ccc(-c2nsc(Nc3ncc(C(F)(F)F)cc3C(=O)N(C)C)n2)nc1 [Compound 57],–,–,3.27,–,–,–,–,–,1.3,0.58,0.578,3.2,3.2
"CNC(=O)c1cccnc1Nc1nc(-c2ccc(OC(C)C)cn2)ns1 [Compound 60, 2-((3-(5-Isopropoxypyridin-2-yl)-1,2,4-thiadiazol-5-yl)amino)-N-methylnicotinamide]",–,–,10.2,–,–,–,–,–,2.4,0.67,–,1.8,1.8
